In US20110052532A1, “Pharmaceutical composition comprising a cytokine” (priority 2007, published 2011):

B1: IFN-α: type I interferon cytokine; commercial IFN-α is IFN-α1 (protein, UniProt P01562 24-189, looked up)
Interferon alpha-1/13: CDLPETHSLDNRRTLMLLAQMSRISPSSCLMDRHDFGFPQEEFDGNQFQKAPAISVLHELIQQIFNLFTTKDSSAAWDEDLLDKFCTELYQQLNDLEACVMQEERVGETPLMNADSILAVKKYFRRITLYLTEKKYSPCAWEVVRAEIMRSLSLSTNLQERLRRKE

Assays:
[1] = test system: bovine viral diarrhea virus (BVDV) NADL strain; test: BVDV antiviral drug-drug combination assay (MTS, MacSynergy II); type: cell-based; conditions: in combination with IFN-α; MDBK cells with BVDV virus
Experimental: (§1) The substances were solubilized in DMSO. Pegylated interferon-alpha (IFN) was supplied by Southern Research Institute and dissolved in sterile dH2O.
(§2) Drug-drug interactions were assayed by testing both the antiviral and cytotoxic activities of a wide range of concentrations of combinations of the compounds and IFN. The bovine viral diarrhea virus (BVDV) NADL strain antiviral evaluation assay and drug-drug combination analysis was performed as described in Antimicro. Agents Chemother. 2003; 47: 2293-8. BVDV is frequently employed as a hepatitis C virus surrogate model in the study of antiviral agents (Antiviral Res. 2003; 60:1-15). Madin-Darby bovine kidney cells were trypsinized, pelleted, counted and resuspended at 1×10^4/well in tissue culture medium in 96-well flat bottom, tissue culture plates in volume of 100 μl per well. […] Five concentrations of substance were evaluated in combination with nine different concentrations IFN; antiviral efficacy and cellular toxicity were monitored by MTS staining at the experimental endpoint.
(§3) At assay termination, the assay plates were stained with the soluble tetrazolium-based dye MTS (CellTiter Reagent Promega) to determine cell viability and quantify compound toxicity. […]
(§4) Theoretical additive values are calculated from the dose response curves for each substance used individually. […]

[2] = test system: Madin-Darby bovine kidney cells; test: BVDV assay, combined cytotoxicity (MTS staining); type: cell-based; conditions: in combination with IFN-α; MDBK cells
Experimental: as §1, §2, §3, §4

HCV = conditions: cited from earlier work

Molecule	combined antiviral activity (drug-drug interaction) [1]	combined cytotoxic activity (drug-drug interaction) [2]	sustained antiviral response, share of patients (HCV; IFN-α therapy in chronic HCV infected patients)	sustained response (HCV; combination therapy with ribavirin)
O=C(c1ccccc1)c1ccc2nc(NC(=O)c3csc(C4CCN(c5ncnc6ccsc56)CC4)n3)[nH]c2c1 [Compound 273, 2-(1-Thieno[3,2-d]pyrimidin-4-yl-piperidin-4-yl)-thiazole-4-carboxylic acid (5-benzoyl-1H-benzoimidazol-2-yl)-amide]	highly synergistic behaviour	highly antagonistic behaviour	–	–
B1	–	–	15-20%	38-43%
